# Molecular target: T1, hu-mPRα (Homo sapiens, UniProt Q86WK9)
# T1 sequence (Q86WK9 1-346): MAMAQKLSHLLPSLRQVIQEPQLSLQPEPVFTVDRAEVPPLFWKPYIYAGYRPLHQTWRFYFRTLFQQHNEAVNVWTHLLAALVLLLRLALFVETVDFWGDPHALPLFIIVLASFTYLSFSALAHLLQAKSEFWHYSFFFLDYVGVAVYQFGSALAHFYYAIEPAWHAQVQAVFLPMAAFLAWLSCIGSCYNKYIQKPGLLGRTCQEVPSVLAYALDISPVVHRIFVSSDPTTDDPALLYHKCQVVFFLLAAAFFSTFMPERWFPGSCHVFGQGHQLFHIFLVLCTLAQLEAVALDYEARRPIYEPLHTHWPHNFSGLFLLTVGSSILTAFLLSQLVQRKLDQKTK
# Assay: hu-mPRα steroid binding assay
# Details: for RBA (Relative Binding Affinity): compared with progesterone (=100), human mPRα; for binding to hu-mPRα (in words): this study, Fig. 1, Table 1
Compound,RBA (Relative Binding Affinity),binding to hu-mPRα (in words),IC50,"decrease in binding relative to testosterone (mPRα, compared with testosterone of ref 10)"
"3,20-dioxopregn-4-ene-18-carbonitrile",1.8%,low binding affinities,–,–
"CC(=O)[C@H]1CC[C@H]2[C@@H]3CCC4=CC(=O)[C@H](C#N)C[C@]4(C)[C@H]3CC[C@]12C [3,20-Dioxopregn-4-ene-2α-carbonitrile]",<1%,inactivity,–,–
CC(=O)[C@H]1CC[C@H]2[C@@H]3CC[C@H]4C[C@H](O)CC[C@]4(C)[C@H]3CC[C@]12C [3α-Hydroxy-5α-pregnan-20-one],7.6%,–,1150 nM,–
CC(=O)[C@H]1CC[C@H]2[C@@H]3CC[C@H]4C[C@@H](O)CC[C@]4(C)[C@H]3CC[C@]12C [3β-Hydroxy-5α-pregnan-20-one],–,absence of binding,–,–
"CC(=O)S[C@@H]1CC2=CC(=O)CC[C@]2(C)[C@H]2CC[C@]3(C)[C@@H](C(C)=O)CC[C@H]3[C@H]12 [7α-Acetylthioprogesterone (Org 33718-0), 7α-Acetylthioprogesterone]",<1%,–,–,–
CCCCCC(=O)O[C@]1(C(C)=O)CC[C@H]2[C@@H]3CCC4=CC(=O)CC[C@]4(C)[C@H]3CC[C@@]21C [17-Caproylprogesterone],4.4%,–,–,–
C[C@]12CC[C@H]3[C@@H](CCC4=CC(=O)CC[C@@]43C)[C@@H]1CC[C@H]2O [17-Epitestosterone],2.8%,–,–,–
C[C@@H]1C=C2CC(=O)CC[C@]2(C)[C@H]2CC[C@]3(C)[C@@H](O)CC[C@H]3[C@H]12 [17β-Hydroxy-7α-methylandrost-5-en-3-one],3.0%,–,2880 nM,10 fold
CC(=O)[C@H]1CC[C@H]2[C@@H]3CCC4=CC(=O)CC[C@]4(CO)[C@H]3CC[C@]12C [19-Hydroxyprogesterone],0.7%,low binding affinities,–,–
"C[C@]12CCC(=O)C=C1CC[C@@H]1[C@@H]2CC[C@@]2(C)[C@H]1CC[C@]2(O)C(=O)CO [Cortexolone (11-deoxycortisol), 11-deoxycortisol]",1.8%,less potent than deoxycorticosterone,4850 nM,–
"C[C@]12CCC(=O)C=C1CC[C@@H]1[C@@H]2[C@@H](O)C[C@@]2(C)[C@H]1CC[C@]2(O)C(=O)CO [Cortisol (hydrocortisone), Cortisol]",–,complete loss of affinity,–,–
C[C@]12CC[C@@H]3c4ccc(O)cc4CC[C@H]3[C@@H]1CC[C@@H]2O [Estradiol-17β],–,no binding affinity,–,–
"CC(=O)[C@H]1CC[C@H]2[C@@H]3CCC4=CC(=O)C=C[C@]4(C)[C@H]3CC[C@]12C [Pregna-1,4-diene-3,20-dione]",93.5%,little or no influence relative to the progesterone response,93.5 nM,–
"CC(=O)[C@H]1CC[C@H]2[C@@H]3C=CC4=CC(=O)CC[C@]4(C)[C@H]3CC[C@]12C [Pregna-4,6-diene-3,20-dione]",98.9%,little or no influence relative to the progesterone response,88.4 nM,–
CC(=O)[C@H]1CC[C@H]2[C@@H]3CCC4=CC(=O)CC[C@]4(C)[C@H]3CC[C@]12C [Progesterone],–,–,87.4 nM,–

# Source: article PMC2858063 (Steroids, 2010)
